Results on five compounds are retold here after publication PMC8348017 (Molecules, 2021).

One may read the IC50 as the concentration that gives 50% inhibition.

Type in all cases: biochemical
The target in one experiment is T1, hBuChE (Homo sapiens, UniProt P06276).
T1 construct: gene BCHE; BuChE isolated from human serum
Put plainly: Ellman assay, % inhibition at […]. To be noted: read-out: hBuChE % Inh 100 μM. On the technique in general: Ellman's reagent forms a yellow product with free thiols.

The next experiment deals with T2, hMAO-A (Homo sapiens, UniProt P21397).
T2 construct: gene MAOA; recombinant hMAO-A
T2 sequence (P21397 1-527): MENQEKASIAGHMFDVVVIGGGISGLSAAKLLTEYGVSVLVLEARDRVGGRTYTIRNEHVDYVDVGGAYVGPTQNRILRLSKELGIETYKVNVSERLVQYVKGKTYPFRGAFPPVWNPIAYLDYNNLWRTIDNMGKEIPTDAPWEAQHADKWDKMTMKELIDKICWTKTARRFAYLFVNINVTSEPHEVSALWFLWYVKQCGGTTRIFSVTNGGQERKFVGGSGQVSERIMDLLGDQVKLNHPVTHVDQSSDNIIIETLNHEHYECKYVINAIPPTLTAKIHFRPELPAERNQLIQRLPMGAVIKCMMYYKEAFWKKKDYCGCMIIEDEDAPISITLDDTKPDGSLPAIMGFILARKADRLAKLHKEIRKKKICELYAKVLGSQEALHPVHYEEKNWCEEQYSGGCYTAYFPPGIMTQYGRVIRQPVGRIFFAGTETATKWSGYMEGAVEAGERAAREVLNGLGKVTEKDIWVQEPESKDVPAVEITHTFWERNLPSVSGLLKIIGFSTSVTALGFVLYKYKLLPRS
Put plainly: Amplex Red MAO fluorimetric assay, % inhibition at […]. To be noted: read-out: hMAO-A % Inh 100 μM.

Experiment [1] addresses T3, hMAO-B (Homo sapiens, UniProt P27338).
T3 construct: gene MAOB; recombinant hMAO-B
T3 sequence (P27338 2-520): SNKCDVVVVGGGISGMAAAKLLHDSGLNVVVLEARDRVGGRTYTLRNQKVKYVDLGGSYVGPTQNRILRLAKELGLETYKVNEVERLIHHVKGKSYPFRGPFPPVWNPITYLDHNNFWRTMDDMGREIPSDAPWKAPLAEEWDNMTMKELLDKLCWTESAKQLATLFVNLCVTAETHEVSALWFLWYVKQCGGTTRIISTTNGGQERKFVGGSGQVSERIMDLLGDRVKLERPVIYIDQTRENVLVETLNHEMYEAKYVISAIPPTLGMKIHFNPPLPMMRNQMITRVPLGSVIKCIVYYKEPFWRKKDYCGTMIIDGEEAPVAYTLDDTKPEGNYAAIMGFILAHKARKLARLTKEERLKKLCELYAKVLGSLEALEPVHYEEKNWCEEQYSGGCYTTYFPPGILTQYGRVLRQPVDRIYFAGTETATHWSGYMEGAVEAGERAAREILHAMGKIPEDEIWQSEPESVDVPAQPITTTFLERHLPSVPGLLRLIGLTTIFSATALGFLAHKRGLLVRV
The experiment is described as above. To be noted: read-out: hMAO-B % Inh 100 μM.

Experiment [2] addresses T3, hMAO-B. The experiment is described as follows: Amplex Red MAO fluorimetric assay, recombinant enzyme, p-tyramine substrate.

T1 sequence (P06276 29-602): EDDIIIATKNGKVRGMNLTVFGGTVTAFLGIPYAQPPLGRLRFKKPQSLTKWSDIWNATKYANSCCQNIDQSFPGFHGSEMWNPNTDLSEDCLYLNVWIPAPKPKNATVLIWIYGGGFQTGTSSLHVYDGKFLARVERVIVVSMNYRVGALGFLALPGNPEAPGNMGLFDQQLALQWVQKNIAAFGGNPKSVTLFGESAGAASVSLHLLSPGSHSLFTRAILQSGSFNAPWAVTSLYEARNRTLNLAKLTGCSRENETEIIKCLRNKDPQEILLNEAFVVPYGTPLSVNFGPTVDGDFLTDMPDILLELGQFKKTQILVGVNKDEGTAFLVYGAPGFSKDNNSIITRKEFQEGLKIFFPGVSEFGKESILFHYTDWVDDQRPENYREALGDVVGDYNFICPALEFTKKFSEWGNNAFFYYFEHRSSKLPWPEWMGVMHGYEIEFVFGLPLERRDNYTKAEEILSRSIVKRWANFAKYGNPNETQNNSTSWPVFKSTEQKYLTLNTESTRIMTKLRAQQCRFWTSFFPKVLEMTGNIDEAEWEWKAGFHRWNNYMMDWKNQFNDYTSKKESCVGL

`O=C(/C=C/c1c(O)cc(O)cc1O)CC(=O)/C=C/c1cc2cc(O)c(O)cc2oc1=O` [compound 15, 6,7-Dihydroxy-3-(7-(2′,4′,6′-trihydroxyphenyl)-3,5-dioxohepta-1,6-dien-1-yl)coumarin]: at hBuChE, the inhibition at 100 µM turned out to be 50.9 ± 3.41%.

In the case of `O=C(/C=C(O)/C=C/c1cc(O)c(O)cc1O)/C=C/c1cc2ccc(O)c(O)c2oc1=O` [compound 12, 7,8-Dihydroxy-3-(7-(2′,4′,5′-trihydroxyphenyl)-3,5-dioxohepta-1,6-dien-1-yl)coumarin], the inhibition at 100 µM at hMAO-A came out at 60.9 ± 4.09%. On to `O=C(/C=C(O)/C=C/c1cc(O)c(O)c(O)c1)/C=C/c1cc2cc(O)c(O)cc2oc1=O` [compound 18, 6,7-Dihydroxy-3-(7-(3′,4′,5′-trihydroxyphenyl)-3,5-dioxohepta-1,6-dien-1-yl)coumarin], for which the figures for the inhibition at 100 µM at hMAO-A and at hMAO-B [1] were 51.5 ± 3.45% and 55.7 ± 3.74%, respectively. Take `O=C(/C=C(O)/C=C/c1cc(O)c(O)cc1O)/C=C/c1cc2cc(O)c(O)cc2oc1=O` [compound 16, 6,7-Dihydroxy-3-(7-(2′,4′,5′-trihydroxyphenyl)-3,5-dioxohepta-1,6-dien-1-yl)coumarin]: the IC50 at hMAO-B [2] was 26.2 ± 1.76 µM. Besides, the inhibition at 100 µM at hMAO-A came to 58.2 ± 3.9%.

`O=C(/C=C(O)/C=C/c1cc(O)c(O)c(O)c1)/C=C/c1cc2ccc(O)c(O)c2oc1=O` [compound 14, 7,8-Dihydroxy-3-(7-(3′,4′,5′-trihydroxyphenyl)-3,5-dioxohepta-1,6-dien-1-yl)coumarin]: the inhibition at 100 µM at hMAO-A is 54.3 ± 3.64%.
